For 29 molecules, remaining activity results are on record in PMC8286840, “Identifying SARS-CoV-2 antiviral compounds by screening for small molecule inhibitors of Nsp3 papain-like protease” (Biochemical Journal, 2021).

Counter-ions that a name gives are not always drawn. Like-named read-outs stand apart in the source and are kept apart here.

Experiment [1] deals with T1, SARS-CoV-2 PLpro (nsp3 1564–1878) (Severe acute respiratory syndrome coronavirus 2, UniProt P0DTD1). As to the kind of experiment: biochemical. Also noted: FRET-quenched peptide (Pro3) cleavage by PLpro, 10 min pre-incubation, slope over 20 min, normalised to no-compound control. As to conditions: low concentration screen, read-out: % of control remaining.
For experiment [2], the target named is T1, SARS-CoV-2 PLpro (nsp3 1564–1878). As to the kind of experiment: biochemical. As to conditions: high concentration screen, read-out: % of control remaining. Also noted: FRET-quenched peptide (Pro3) cleavage by PLpro, 10 min pre-incubation, slope over 20 min, normalised to no-compound control.

Take `CC(C)C[C@H](NC(=O)[C@H](Cc1ccccc1)NC(=O)c1cnccn1)B(O)O` [Bortezomib]: the remaining activity at 1.25 µM in experiment [1] (Well no.=1768) was determined as 99.9%; in experiment [1] (Well no.=6302), 98.1%. Moreover, in experiment [2] (Well no.=1768), the remaining activity at 3.75 µM stood at 101%.

For the molecule `COc1ccccc1Oc1c(NS(=O)(=O)c2ccc(C(C)(C)C)cc2)nc(-c2ncccn2)nc1OCCO` [Bosentan (hydrate)], the remaining activity at 1.25 µM in experiment [1] (Well no.=6461) was 102%. In addition, the remaining activity at 3.75 µM in experiment [2] (Well no.=6461) is 101%.

Consider `COc1ccccc1Oc1c(NS(=O)(=O)c2ccc(C(C)(C)C)cc2)nc(-c2ncccn2)nc1OCCO` [Bosentan Hydrate], for which, in experiment [1] (Well no.=5273), the remaining activity at 1.25 µM was 97.9%. In addition, the remaining activity at 3.75 µM in experiment [2] (Well no.=5273) turned out to be 95.6%.

Consider `COc1ccccc1Oc1c(NS(=O)(=O)c2ccc(C(C)(C)C)cc2)nc(-c2ncccn2)nc1OCCO` [Bosentan], for which the remaining activity at 1.25 µM turned out to be 93.3% in experiment [1] (Well no.=2246) and 98.7% in experiment [1] (Well no.=7575). Besides, the remaining activity at 3.75 µM in experiment [2] (Well no.=2246) stood at 95%; in experiment [2] (Well no.=7575), 96.3%.

`COc1cc(Nc2c(C#N)cnc3cc(OCCCN4CCN(C)CC4)c(OC)cc23)c(Cl)cc1Cl` [Bosutinib]: the remaining activity at 1.25 µM in experiment [1] (Well no.=2883) is 97.8%. In experiment [2] (Well no.=2883), the remaining activity at 3.75 µM is 100%.

As to `CSC(=S)NCc1c[nH]c2ccccc12` [Brassinin], in experiment [1] (Well no.=3801), the remaining activity at 1.25 µM was found to be 101%. For the same molecule, the remaining activity at 3.75 µM in experiment [2] (Well no.=3801) stood at 101%.

As to `C[C@H]1CCC/C=C/[C@@H]2C[C@H](O)C[C@H]2[C@H](O)/C=C/C(=O)O1` [Brefeldin A], in experiment [1] (Well no.=3093), the remaining activity at 1.25 µM was 101%. In addition, the remaining activity at 3.75 µM in experiment [2] (Well no.=3093) turned out to be 100%.

`CC[N+](C)(C)Cc1ccccc1Br` [Bretylium tosylate]: the remaining activity at 1.25 µM in experiment [1] (Well no.=321) was determined as 103%. In experiment [2] (Well no.=321), the remaining activity at 3.75 µM stood at 101%.

In the case of `O=c1ccc2ccc(OCCCCN3CCN(c4cccc5sccc45)CC3)cc2[nH]1` [Brexpiprazole], in experiment [1] (Well no.=6473), the remaining activity at 1.25 µM amounted to 99.5%. Also, in experiment [2] (Well no.=6473), the remaining activity at 3.75 µM turned out to be 98.1%.

With `CCN[C@H]1CN(CCCOC)S(=O)(=O)c2sc(S(N)(=O)=O)cc21` [Brinzolamide], the remaining activity at 1.25 µM in experiment [1] (Well no.=5028) is 105%. The remaining activity at 3.75 µM in experiment [2] (Well no.=5028) amounted to 105%.

As to `Cc1cc2c(F)c(Oc3ncnn4cc(OC[C@@H](C)OC(=O)[C@H](C)N)c(C)c34)ccc2[nH]1` [Brivanib alaninate (BMS-582664)], the remaining activity at 1.25 µM in experiment [1] (Well no.=5049) worked out at 102%. Besides, the remaining activity at 3.75 µM in experiment [2] (Well no.=5049) came to 104%.

Regarding `O=c1[nH]c(=O)n([C@H]2C[C@H](O)[C@@H](CO)O2)cc1/C=C/Br` [Brivudine], in experiment [1] (Well no.=8845), the remaining activity at 1.25 µM worked out at 107%. Moreover, the remaining activity at 3.75 µM in experiment [2] (Well no.=8845) was found to be 98.3%.

For `CN(Cc1cc(Br)cc(Br)c1N)C1CCCCC1` [Bromhexine], the remaining activity at 1.25 µM in experiment [1] (Well no.=2177) was 98.4%. In experiment [2] (Well no.=2177), the remaining activity at 3.75 µM amounted to 102%.

On to `C=CCc1ccccc1OCC(O)CNC1(C)CCC(C(C)(C)NC(=O)CBr)CC1` (stereo not shown) [Bromoacetyl alprenolol menthane], for which, in experiment [1] (Well no.=275), the remaining activity at 1.25 µM was determined as 91.4%. The remaining activity at 3.75 µM in experiment [2] (Well no.=275) was 93.3%.

Regarding `C[N+](C)(C)CCOC(=O)CBr` [Bromoacetylcholine bromide], the remaining activity at 1.25 µM in experiment [1] (Well no.=181) came out at 102%. The remaining activity at 3.75 µM in experiment [2] (Well no.=181) is 98.9%.

For the molecule `CC(C)C[C@H]1C(=O)N2CCC[C@H]2[C@]2(O)O[C@](NC(=O)[C@@H]3C=C4c5cccc6[nH]c(Br)c(c56)C[C@H]4N(C)C3)(C(C)C)C(=O)N12` [Bromocriptine (mesylate)], the remaining activity at 1.25 µM in experiment [1] (Well no.=6891) came to 97.5%. Also, in experiment [2] (Well no.=6891), the remaining activity at 3.75 µM amounted to 96.2%.

For `CC(C)C[C@H]1C(=O)N2CCC[C@H]2[C@]2(O)O[C@](NC(=O)[C@@H]3C=C4c5cccc6[nH]c(Br)c(c56)C[C@H]4N(C)C3)(C(C)C)C(=O)N12` [Bromocriptine mesylate], the remaining activity at 1.25 µM in experiment [1] (Well no.=1811) turned out to be 92.4%; in experiment [1] (Well no.=3485), 104%. Further, the remaining activity at 3.75 µM in experiment [2] (Well no.=1811) was 91.6%; in experiment [2] (Well no.=3485), 101%.

Consider `O=C1O/C(=C/Br)CCC1c1cccc2ccccc12` (stereo not shown) [Bromoenol lactone], for which the remaining activity at 1.25 µM in experiment [1] (Well no.=310) worked out at 93%. Besides, the remaining activity at 3.75 µM in experiment [2] (Well no.=310) is 96.9%.

With `CN(C)CCC(c1ccc(Br)cc1)c1ccccn1` (stereo not shown) [Brompheniramine (maleate)], the remaining activity at 1.25 µM in experiment [1] (Well no.=7377) was determined as 102%. Also, the remaining activity at 3.75 µM in experiment [2] (Well no.=7377) stood at 105%.

For the molecule `CN(C)CCC(c1ccc(Br)cc1)c1ccccn1` (stereo not shown) [Brompheniramine], in experiment [1] (Well no.=5292), the remaining activity at 1.25 µM turned out to be 99%. Besides, the remaining activity at 3.75 µM in experiment [2] (Well no.=5292) worked out at 96.1%.

For the molecule `COc1cc2c(cc1OC)[C@@]13CC[N+]4([O-])CC5=CCO[C@H]6CC(=O)N2[C@H]1[C@H]6[C@H]5C[C@@H]34` (stereo partly shown) [Brucine-N-oxide], the remaining activity at 1.25 µM in experiment [1] (Well no.=3270) came out at 99.2%. Further, in experiment [2] (Well no.=3270), the remaining activity at 3.75 µM is 102%.

As to `CCCC1O[C@@H]2C[C@H]3[C@@H]4CCC5=CC(=O)C=C[C@]5(C)[C@H]4[C@@H](O)C[C@]3(C)[C@]2(C(=O)CO)O1` (stereo partly shown) [Budesonide], the remaining activity at 1.25 µM turned out to be 105% in experiment [1] (Well no.=81) and 98.6% in experiment [1] (Well no.=6659). In addition, the remaining activity at 3.75 µM in experiment [2] (Well no.=81) is 102%; in experiment [2] (Well no.=6659), 98.7%.

`CCCCOc1ccc(CC(=O)NO)cc1` [Bufexamac]: the remaining activity at 1.25 µM in experiment [1] (Well no.=5265) was found to be 101%. Besides, the remaining activity at 3.75 µM in experiment [2] (Well no.=5265) turned out to be 99.5%.

In the case of `COc1cc(OC)c(C(=O)CCCN2CCCC2)c(OC)c1` [Buflomedil HCl], in experiment [1] (Well no.=5296), the remaining activity at 1.25 µM came to 101%. Further, the remaining activity at 3.75 µM in experiment [2] (Well no.=5296) was 97.4%.

On to `CCCCNc1cc(C(=O)O)cc(S(N)(=O)=O)c1Oc1ccccc1` [Bumetanide], for which the remaining activity at 1.25 µM in experiment [1] (Well no.=29) was 103%; in experiment [1] (Well no.=1909), 100%. The remaining activity at 3.75 µM in experiment [2] (Well no.=29) was 96.8%; in experiment [2] (Well no.=1909) it was 99.1%.

`CCCCN1CCCCC1C(=O)Nc1c(C)cccc1C` (stereo not shown) [Bupivacaine]: the remaining activity at 1.25 µM in experiment [1] (Well no.=2052) was 105%. For the same molecule, the remaining activity at 3.75 µM in experiment [2] (Well no.=2052) was determined as 103%.

Turning to `CC(NC(C)(C)C)C(=O)c1cccc(Cl)c1` (stereo not shown) [Bupropion hydrochloride], the remaining activity at 1.25 µM in experiment [1] (Well no.=37) was found to be 101%. In addition, the remaining activity at 3.75 µM in experiment [2] (Well no.=37) amounted to 100%.

For the molecule `CCNC(=O)[C@@H]1CCCN1C(=O)[C@H](CCCNC(=N)N)NC(=O)[C@H](CC(C)C)NC(=O)[C@@H](COC(C)(C)C)NC(=O)[C@H](Cc1ccc(O)cc1)NC(=O)[C@H](CO)NC(=O)[C@H](Cc1c[nH]c2ccccc12)NC(=O)[C@H](Cc1cnc[nH]1)NC(=O)[C@@H]1CCC(=O)N1` [Buserelin (Acetate)], the remaining activity at 1.25 µM in experiment [1] (Well no.=8151) came out at 106%. Further, in experiment [2] (Well no.=8151), the remaining activity at 3.75 µM came to 104%.

Consider `O=C1CC2(CCCC2)CC(=O)N1CCCCN1CCN(c2ncccn2)CC1` [Buspirone (hydrochloride)], for which, in experiment [1] (Well no.=8249), the remaining activity at 1.25 µM amounted to 101%. For the same molecule, the remaining activity at 3.75 µM in experiment [2] (Well no.=8249) stood at 99.1%.
